According to patent publication US5385947A, “Octahydrophenanthrene derivatives” (Hoffmann-La Roche Inc., priority 1993, dated 1995):
Where a name gives a salt, the structure may show the parent alone.

Experiments:
[1] = target: specific binding sites of dizocilpine ([3H]-MK801) in the rat cortex; assay: 3H-MK801 (dizocilpine) binding test: inhibition of the binding of dizocilpine to the specific binding sites in rat cortex; settings: 50 percent inhibition of specific binding of dizocilpine
Protocol: The pharmacological activity of some compounds in accordance with the invention and of rac-cis-4b-(2-amino-ethyl)4b,5,6,7,8,8a,9,10-octahydro-phenanthren-8a-ol was determined in vitro according to the method described in Europ. J. Pharmacol. 135, 261 (1987). According to this method [namely the 3H-MK801 (dizocilpine) binding test] the inhibition of the binding of dizocilpine to the specific binding sites in rat cortex by the respective test substances is determined. The IC50 ("50% inhibiting concentration") is that concentration of the respective test substance which brings about a 50 percent inhibition of the specific binding of dizocilpine to the specific binding sites in the rat cortex.
(§1) The thus-determined activity of some compounds in accordance with the invention will be evident from the IC50 values set forth in the following Table; moreover, the Table contains data concerning their toxicity (lowest lethal dosage=LLD in the mouse, p.o.).

[2] = tested on: mouse; assay: Toxicity (lowest lethal dosage, LLD) in the mouse, p.o.; type: in vivo
Excerpt: as §1

Cl.NCC[C@@]12CCCC[C@]1(O)CCc1ccc(O)cc12 (racemic) [rac-cis-4b-(2-Amino-ethyl)-4b,5,6,7,8,8a,9,10-octahydro-phenanthrene-3,8a-diol hydrochloride]
IC50 [1]: 0.0734 µM
Toxicity LLD (lowest lethal dosage) [2]: 1000 mg/kg

CN(C)CC[C@@]12CCCC[C@]1(O)CCc1ccccc12 (racemic) [rac-cis-4b-(2-Dimethylamino-ethyl)-4b,5,6,7,8,8a,9,10-octahydro-phenanthren-8a-ol hydrochloride]
IC50 [1]: 0.453 µM

Cl.NCC[C@@]12CCCC[C@]1(O)CCc1ccccc12 (racemic) [rac-cis-4b-(2-Amino-ethyl)-4b,5,6,7,8,8a,9,10-octahydro-phenanthren-8a-ol hydrochloride]
IC50 [1]: 0.093 µM
Toxicity LLD (lowest lethal dosage) [2]: 250 mg/kg

Cl.NCC[C@@]12CCCC[C@]1(O)CCc1ccc(Cl)cc12 (racemic) [rac-cis-4b-(2-Amino-ethyl)-3-chloro-4b,5,6,7,8,8a,9,10-octahydro-phenanthren-8a-ol hydrochloride]
IC50 [1]: 0.0847 µM
Toxicity LLD (lowest lethal dosage) [2]: 500 mg/kg

CN(C)CC[C@@]12CCCC[C@]1(O)CCc1ccc(Cl)cc12.Cl (single isomer, unassigned) [(-)-cis-3-Chloro-4b-(2-dimethylamino-ethyl)-4b,5,6,7,8,8a,9,10-octahydro-phenanthren-8a-ol hydrochloride]
IC50 [1]: 0.254 µM
Toxicity LLD (lowest lethal dosage) [2]: 375 mg/kg

Cl.NCC[C@@]12CCCC[C@]1(O)CCc1c(F)cc(Cl)cc12 (racemic) [rac-cis-4b-(2-Amino-ethyl)-3-chloro-1-fluoro-4b,5,6,7,8,8a,9,10-octahydro-phenanthren-8a-ol hydrochloride]
IC50 [1]: 0.107 µM
Toxicity LLD (lowest lethal dosage) [2]: 1000 mg/kg
